Laboratory results taken from patent US20080009418A1, “Selective Inhibitors” (Alchemia LTD., priority 2004, published 2008).

Columns and labels:
[1] = target: T1, Human δ-opioid (DOP) (Homo sapiens, UniProt P41143); assay: Radioligand binding, human δ-opioid (DOP) membranes, FlashPlate, [3H]-Bremazocine; settings: compound at 10 μM; for A1: inhibition of radioligand binding / A1: inhibition of radioligand binding, human δ-opioid (DOP): [3H]-Bremazocine
T1 construct: purchased Perkin Elmer Biosignal
T1 sequence (P41143 whole entry): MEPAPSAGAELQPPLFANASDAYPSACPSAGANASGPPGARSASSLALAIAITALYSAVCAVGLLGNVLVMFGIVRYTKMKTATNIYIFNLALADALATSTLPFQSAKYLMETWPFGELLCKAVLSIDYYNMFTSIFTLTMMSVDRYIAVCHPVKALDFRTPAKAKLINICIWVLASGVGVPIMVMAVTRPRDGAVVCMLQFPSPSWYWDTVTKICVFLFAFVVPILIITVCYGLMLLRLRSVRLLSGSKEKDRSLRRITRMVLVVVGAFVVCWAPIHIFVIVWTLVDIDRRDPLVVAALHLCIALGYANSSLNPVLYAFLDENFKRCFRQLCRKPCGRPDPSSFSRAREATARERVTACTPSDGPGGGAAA
Method in brief: (§1)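 Cloned human receptor membranes were coated onto FlashPlate wells and incubated with radioligand and compound (added from a 0.5 mM DMSO daughter plate) for 1 hour at room temperature in the dark. Scintillation counting gave percent inhibition, with DMSO defining total and reference ligand defining non-specific binding.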

[2] = target: T2, Human κ-Opioid (KOP) (Homo sapiens, UniProt P41145); assay: Radioligand binding, human κ-opioid (KOP) membranes, filtration, [3H]-Diprenorphine; settings: compound at 10 μM; for A2: inhibition of radioligand binding / A2: inhibition of radioligand binding, human κ-opioid (KOP): [3H]-Diprenorphine
T2 construct: purchased Perkin Elmer Biosignal
T2 sequence (P41145 whole entry): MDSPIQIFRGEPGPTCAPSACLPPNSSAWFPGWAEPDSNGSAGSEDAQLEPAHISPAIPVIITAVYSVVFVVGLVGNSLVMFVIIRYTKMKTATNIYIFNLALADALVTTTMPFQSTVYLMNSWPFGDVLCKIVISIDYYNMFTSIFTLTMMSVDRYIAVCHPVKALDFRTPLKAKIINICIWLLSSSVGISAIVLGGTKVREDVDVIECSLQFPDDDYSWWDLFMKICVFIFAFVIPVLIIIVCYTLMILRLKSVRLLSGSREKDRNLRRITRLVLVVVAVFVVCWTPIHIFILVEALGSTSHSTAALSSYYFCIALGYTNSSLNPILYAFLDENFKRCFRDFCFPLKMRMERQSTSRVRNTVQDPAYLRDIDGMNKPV
Method in brief: (§2)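 Membranes from cloned human receptors were incubated with compound and radioligand for 1 hour at room temperature. Bound ligand was collected on 0.3% PEI-soaked filters, washed with cold 50 mM Tris-HCl pH 7.4, and counted by scintillation. Percent inhibition was computed against DMSO totals and reference-ligand nonspecific wells.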

[3] = target: T3, Human Melanocortin (MC3) (Homo sapiens, UniProt P41968); assay: Radioligand binding, human melanocortin MC3 membranes, FlashPlate, [125I]-NDP-αMSH; settings: compound at 10 μM; for A3: inhibition of radioligand binding / A3: inhibition of radioligand binding, human melanocortin (MC3): [125I]-NDP-αMSH
T3 construct: purchased Perkin Elmer Biosignal
T3 sequence (P41968 whole entry): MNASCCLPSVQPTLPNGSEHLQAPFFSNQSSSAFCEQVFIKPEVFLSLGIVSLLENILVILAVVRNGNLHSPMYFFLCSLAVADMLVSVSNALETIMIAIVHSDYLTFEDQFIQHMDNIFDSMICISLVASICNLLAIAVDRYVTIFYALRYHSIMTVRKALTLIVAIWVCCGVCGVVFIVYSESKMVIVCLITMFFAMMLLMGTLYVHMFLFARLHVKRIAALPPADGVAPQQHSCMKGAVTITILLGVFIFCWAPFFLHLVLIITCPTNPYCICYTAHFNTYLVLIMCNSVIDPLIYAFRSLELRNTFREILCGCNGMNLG
Method in brief: as §1

[4] = target: T4, Human Melanocortin (MC4) (Homo sapiens, UniProt P32245); assay: Radioligand binding, human melanocortin MC4 membranes, FlashPlate, [125I]-NDP-αMSH; settings: compound at 10 μM; for A4: inhibition of radioligand binding / A4: inhibition of radioligand binding, human melanocortin (MC4): [125I]-NDP-αMSH
T4 construct: purchased Perkin Elmer Biosignal
T4 sequence (P32245 whole entry): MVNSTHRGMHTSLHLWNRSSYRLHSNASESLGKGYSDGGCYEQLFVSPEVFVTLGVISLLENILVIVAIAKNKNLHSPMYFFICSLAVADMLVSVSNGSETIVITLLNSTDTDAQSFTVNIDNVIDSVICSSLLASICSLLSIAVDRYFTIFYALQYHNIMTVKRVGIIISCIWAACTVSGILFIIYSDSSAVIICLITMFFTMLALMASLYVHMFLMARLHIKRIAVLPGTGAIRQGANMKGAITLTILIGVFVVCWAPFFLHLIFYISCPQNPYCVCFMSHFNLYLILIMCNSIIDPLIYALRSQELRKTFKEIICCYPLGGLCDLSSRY
Method in brief: as §1

[5] = target: T5, Human melanocortin (MC5) (Homo sapiens, UniProt P33032); assay: Radioligand binding, human melanocortin MC5 membranes, FlashPlate, [125I]-NDP-αMSH; settings: compound at 10 μM; for A5: inhibition of radioligand binding / A5: inhibition of radioligand binding, human melanocortin (MC5): [125I]-NDP-αMSH
T5 construct: purchased Perkin Elmer Biosignal
T5 sequence (P33032 whole entry): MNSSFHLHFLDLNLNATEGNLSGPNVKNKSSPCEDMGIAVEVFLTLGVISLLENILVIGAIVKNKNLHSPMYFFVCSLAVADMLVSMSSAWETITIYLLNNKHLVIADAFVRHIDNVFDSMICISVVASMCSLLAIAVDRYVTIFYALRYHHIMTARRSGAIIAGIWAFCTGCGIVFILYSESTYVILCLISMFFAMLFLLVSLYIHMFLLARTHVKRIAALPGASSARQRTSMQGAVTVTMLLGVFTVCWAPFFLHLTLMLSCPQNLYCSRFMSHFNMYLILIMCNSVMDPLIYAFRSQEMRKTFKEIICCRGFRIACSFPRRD
Method in brief: as §1

[6] = target: T6, Human melanin-concentrating hormone (MCH1) (Homo sapiens, UniProt Q99705); assay: Radioligand binding, human melanin-concentrating hormone MCH1 membranes, FlashPlate, [125I]-S36057; settings: compound at 10 μM; for A6: inhibition of radioligand binding, human melanin-concentrating hormone (MCH1): [125I]-S36057
T6 construct: purchased Perkin Elmer Biosignal
T6 sequence (Q99705 whole entry): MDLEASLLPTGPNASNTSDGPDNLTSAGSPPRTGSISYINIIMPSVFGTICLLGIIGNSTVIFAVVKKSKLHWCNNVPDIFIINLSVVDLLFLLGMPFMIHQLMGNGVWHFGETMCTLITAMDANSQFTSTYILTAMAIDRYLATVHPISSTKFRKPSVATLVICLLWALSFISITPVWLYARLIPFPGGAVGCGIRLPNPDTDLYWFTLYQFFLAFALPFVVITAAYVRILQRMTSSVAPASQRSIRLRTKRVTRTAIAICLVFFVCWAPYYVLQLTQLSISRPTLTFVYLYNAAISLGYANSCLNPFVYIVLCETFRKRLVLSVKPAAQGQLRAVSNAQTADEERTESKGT
Method in brief: as §1

[7] = target: T7, Human μ-opioid (MOP) (Homo sapiens, UniProt P35372); assay: Radioligand binding, human μ-opioid (MOP) membranes, FlashPlate, [3H]-Naloxone; settings: compound at 10 μM; for A7: inhibition of radioligand binding / A7: inhibition of radioligand binding, human μ-opioid (MOP): [3H]-Naloxone
T7 construct: purchased Perkin Elmer Biosignal
T7 sequence (P35372 whole entry): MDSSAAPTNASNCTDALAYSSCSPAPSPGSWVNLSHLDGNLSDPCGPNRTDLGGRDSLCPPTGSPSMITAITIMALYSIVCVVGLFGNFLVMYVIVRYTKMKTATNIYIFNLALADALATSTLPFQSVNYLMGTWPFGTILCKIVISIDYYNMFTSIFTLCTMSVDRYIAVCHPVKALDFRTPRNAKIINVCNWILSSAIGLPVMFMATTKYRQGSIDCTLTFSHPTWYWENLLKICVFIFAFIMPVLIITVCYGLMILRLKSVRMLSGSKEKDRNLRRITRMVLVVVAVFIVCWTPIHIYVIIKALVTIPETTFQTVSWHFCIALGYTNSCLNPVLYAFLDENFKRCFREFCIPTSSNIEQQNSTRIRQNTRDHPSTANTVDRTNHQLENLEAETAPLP
Method in brief: as §1

[8] = target: T8, Human neurokinin (NK1) (Homo sapiens, UniProt P25103); assay: Radioligand binding, human neurokinin NK1 membranes, filtration, [125I]-Substance P; settings: compound at 10 μM; for A8: inhibition of radioligand binding / A8: inhibition of radioligand binding, human neurokinin (NK1): [125I]-Substance P
T8 construct: purchased Perkin Elmer Biosignal
T8 sequence (P25103 whole entry): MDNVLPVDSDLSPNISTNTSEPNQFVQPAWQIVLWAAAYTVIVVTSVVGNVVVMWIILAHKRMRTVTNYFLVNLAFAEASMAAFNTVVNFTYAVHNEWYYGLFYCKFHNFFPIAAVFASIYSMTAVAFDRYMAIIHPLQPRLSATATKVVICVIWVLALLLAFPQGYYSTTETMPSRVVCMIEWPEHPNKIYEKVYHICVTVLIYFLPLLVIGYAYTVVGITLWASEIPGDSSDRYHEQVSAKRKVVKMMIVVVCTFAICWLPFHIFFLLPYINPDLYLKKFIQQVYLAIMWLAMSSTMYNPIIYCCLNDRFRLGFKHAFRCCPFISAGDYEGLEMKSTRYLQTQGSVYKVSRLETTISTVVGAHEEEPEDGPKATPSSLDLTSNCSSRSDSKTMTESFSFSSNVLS
Method in brief: as §2

[9] = target: T9, Human neuropeptide Y (NPY-Y1) (Homo sapiens, UniProt P25929); assay: Radioligand binding, human neuropeptide Y NPY-Y1 membranes, FlashPlate, [125I]-PYY; settings: compound at 10 μM; for A9: inhibition of radioligand binding / A9: inhibition of radioligand binding, human neuropeptide Y (NPY-Y1): [125I]-PYY
T9 construct: purchased Perkin Elmer Biosignal
T9 sequence (P25929 1-384): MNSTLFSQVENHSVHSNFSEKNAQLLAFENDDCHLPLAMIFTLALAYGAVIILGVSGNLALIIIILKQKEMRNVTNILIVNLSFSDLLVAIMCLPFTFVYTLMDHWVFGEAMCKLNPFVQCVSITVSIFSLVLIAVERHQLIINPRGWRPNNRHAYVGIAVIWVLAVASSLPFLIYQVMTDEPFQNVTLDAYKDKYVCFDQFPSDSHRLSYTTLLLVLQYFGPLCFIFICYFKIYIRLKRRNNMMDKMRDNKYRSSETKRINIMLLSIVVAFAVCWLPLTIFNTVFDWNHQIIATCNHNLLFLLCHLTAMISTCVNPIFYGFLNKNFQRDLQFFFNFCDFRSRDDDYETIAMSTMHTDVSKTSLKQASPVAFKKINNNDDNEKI
Method in brief: as §1

[10] = target: T10, Human opioid (ORL1) (Homo sapiens, UniProt P41146); assay: Radioligand binding, human opioid ORL1 membranes, FlashPlate, [125I]-Nociceptin; settings: compound at 10 μM; for A10: inhibition of radioligand binding / A10: inhibition of radioligand binding, human opioid (ORL1): [125I]-Nociceptin
T10 construct: purchased Perkin Elmer Biosignal
T10 sequence (P41146 whole entry): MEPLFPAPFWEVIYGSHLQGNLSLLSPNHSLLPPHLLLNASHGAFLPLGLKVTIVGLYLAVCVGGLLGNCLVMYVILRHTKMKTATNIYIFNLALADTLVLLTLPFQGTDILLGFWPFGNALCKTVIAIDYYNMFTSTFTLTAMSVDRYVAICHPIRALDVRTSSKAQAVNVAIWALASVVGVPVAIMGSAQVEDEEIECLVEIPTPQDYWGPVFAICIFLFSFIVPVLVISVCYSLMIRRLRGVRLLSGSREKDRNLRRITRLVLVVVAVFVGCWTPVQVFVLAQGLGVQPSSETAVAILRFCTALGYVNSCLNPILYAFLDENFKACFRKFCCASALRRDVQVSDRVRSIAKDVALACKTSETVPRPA
Method in brief: as §1

[11] = target: T11, Mouse urotensin (mUR2) (Mus musculus, UniProt Q8VIH9); assay: Radioligand binding, mouse urotensin mUR2 membranes, FlashPlate, [125I]-Urotensin II; settings: compound at 10 μM; for A11: inhibition of radioligand binding / A11: inhibition of radioligand binding, mouse urotensin (mUR2): [125I]-Urotensin II
T11 construct: purchased Perkin Elmer Biosignal
T11 sequence (Q8VIH9 1-385): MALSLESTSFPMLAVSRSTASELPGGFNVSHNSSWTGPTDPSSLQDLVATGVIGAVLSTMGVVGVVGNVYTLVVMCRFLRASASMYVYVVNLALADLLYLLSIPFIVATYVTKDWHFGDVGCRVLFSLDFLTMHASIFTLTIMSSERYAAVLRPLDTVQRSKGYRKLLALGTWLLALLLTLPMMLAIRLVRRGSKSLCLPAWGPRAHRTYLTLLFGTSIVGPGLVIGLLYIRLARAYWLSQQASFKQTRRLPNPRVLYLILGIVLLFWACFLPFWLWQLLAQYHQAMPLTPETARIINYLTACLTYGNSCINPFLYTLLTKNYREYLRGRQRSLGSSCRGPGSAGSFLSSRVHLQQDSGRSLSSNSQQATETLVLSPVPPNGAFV
Method in brief: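 Cloned mouse urotensin (mUR2) receptor membranes from Perkin Elmer Biosignal were immobilized in FlashPlate microplates using a proprietary coating. Each well got 19.5 μl buffer, then 0.5 μl of DMSO, reference ligand, or compound. Adding 5 μl of [125I]-Urotensin II, diluted to 5× final concentration in binding buffer, started binding. Plates were sealed with TopSeal-A and incubated 1 hour at room temperature in the dark. Wells were counted for 30 seconds each on a TopCount after a 60-second delay, and percentage inhibition was calculated.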

Structure (SMILES): NCCC(=O)N[C@H]1C(OCc2ccc3ccccc3c2)O[C@H](COCc2ccccc2)[C@@H](O)[C@@H]1OCc1ccc(Cl)cc1 (stereo partly shown) [compound 438]
- A1: inhibition of radioligand binding ([1]; human DOP membranes): − (“−” indicates less than 50% inhibition at 10 μM)
- A2: inhibition of radioligand binding ([2]; human KOP membranes): − (“−” indicates less than 50% inhibition at 10 μM)
- A3: inhibition of radioligand binding ([3]; human MC3 membranes): − (“−” indicates less than 50% inhibition at 10 μM)
- A4: inhibition of radioligand binding ([4]; human MC4 membranes, 10 µM): − (“−” indicates less than 50% inhibition at 10 μM)
- A5: inhibition of radioligand binding ([5]; human MC5 membranes, 10 µM): − (“−” indicates less than 50% inhibition at 10 μM)
- A6: inhibition of radioligand binding ([6]; [125I]-S36057, human MCH1 membranes, 10 µM): + (“+” indicates greater than 50% inhibition at 10 μM)
- A7: inhibition of radioligand binding ([7]; human MOP membranes): − (“−” indicates less than 50% inhibition at 10 μM)
- A8: inhibition of radioligand binding ([8]; human NK1 membranes): + (“+” indicates greater than 50% inhibition at 10 μM)
- A9: inhibition of radioligand binding ([9]; human NPY-Y1 membranes): − (“−” indicates less than 50% inhibition at 10 μM)
- A10: inhibition of radioligand binding ([10]; human ORL1 membranes): − (“−” indicates less than 50% inhibition at 10 μM)
- A11: inhibition of radioligand binding ([11]; mouse mUR2 membranes): − (“−” indicates less than 50% inhibition at 10 μM)

Structure (SMILES): COCC1OC(OCCc2ccccc2)C(NC(=O)CCN)C(OCc2ccc(Cl)cc2)C1O (stereo not shown) [compound 221]
- A1: inhibition of radioligand binding ([1]; FlashPlate): − (“−” indicates less than 50% inhibition at 10 μM)
- A2: inhibition of radioligand binding ([2]; filtration): − (“−” indicates less than 50% inhibition at 10 μM)
- A3: inhibition of radioligand binding ([3]; FlashPlate): − (“−” indicates less than 50% inhibition at 10 μM)
- A4: inhibition of radioligand binding ([4]; FlashPlate): − (“−” indicates less than 50% inhibition at 10 μM)
- A5: inhibition of radioligand binding ([5]; FlashPlate): + (“+” indicates greater than 50% inhibition at 10 μM)
- A6: inhibition of radioligand binding ([6]; [125I]-S36057, FlashPlate): − (“−” indicates less than 50% inhibition at 10 μM)
- A7: inhibition of radioligand binding ([7]; FlashPlate): − (“−” indicates less than 50% inhibition at 10 μM)
- A8: inhibition of radioligand binding ([8]; filtration): + (“+” indicates greater than 50% inhibition at 10 μM)
- A9: inhibition of radioligand binding ([9]; FlashPlate): − (“−” indicates less than 50% inhibition at 10 μM)
- A10: inhibition of radioligand binding ([10]; FlashPlate): − (“−” indicates less than 50% inhibition at 10 μM)
- A11: inhibition of radioligand binding ([11]; FlashPlate): − (“−” indicates less than 50% inhibition at 10 μM)

Structure (SMILES): CO[C@H]1[C@H](O)[C@@H](COCc2ccc(-c3ccccc3)cc2)OC(OCc2ccc(-c3ccccc3)cc2)[C@@H]1NC(=O)CCCN (stereo partly shown) [compound 53]
- A1 radioligand binding inhibition ([1]; human δ-opioid (DOP) membranes): − (“−” indicates less than 50% inhibition at 10 μM)
- A2 radioligand binding inhibition ([2]; human κ-opioid (KOP) membranes): − (“−” indicates less than 50% inhibition at 10 μM)
- A3 radioligand binding inhibition ([3]; human melanocortin MC3 membranes): − (“−” indicates less than 50% inhibition at 10 μM)
- A4 radioligand binding inhibition ([4]; human melanocortin MC4 membranes): − (“−” indicates less than 50% inhibition at 10 μM)
- A5 radioligand binding inhibition ([5]; human melanocortin MC5 membranes): − (“−” indicates less than 50% inhibition at 10 μM)
- A6 radioligand binding inhibition ([6]; human MCH1 membranes): + (“+” indicates greater than 50% inhibition at 10 μM)
- A7 radioligand binding inhibition ([7]; human μ-opioid (MOP) membranes): − (“−” indicates less than 50% inhibition at 10 μM)
- A8 radioligand binding inhibition ([8]; human neurokinin NK1 membranes): − (“−” indicates less than 50% inhibition at 10 μM)
- A9 radioligand binding inhibition ([9]; human NPY-Y1 membranes): − (“−” indicates less than 50% inhibition at 10 μM)
- A10 radioligand binding inhibition ([10]; human ORL1 membranes): − (“−” indicates less than 50% inhibition at 10 μM)
- A11 radioligand binding inhibition ([11]; mouse urotensin mUR2 membranes): − (“−” indicates less than 50% inhibition at 10 μM)

Structure (SMILES): CSC1OC(COCc2ccc(-c3ccccc3)cc2)C(O)C(OCc2ccc3ccccc3c2)C1NC(=O)CCCN (stereo not shown) [compound 315]
- A1: inhibition of radioligand binding, human δ-opioid (DOP) [1]: − (“−” indicates less than 50% inhibition at 10 μM)
- A2: inhibition of radioligand binding, human κ-opioid (KOP) [2]: − (“−” indicates less than 50% inhibition at 10 μM)
- A3: inhibition of radioligand binding, human melanocortin (MC3) [3]: − (“−” indicates less than 50% inhibition at 10 μM)
- A4: inhibition of radioligand binding, human melanocortin (MC4) [4]: − (“−” indicates less than 50% inhibition at 10 μM)
- A5: inhibition of radioligand binding, human melanocortin (MC5) [5]: − (“−” indicates less than 50% inhibition at 10 μM)
- A6: inhibition of radioligand binding, human melanin-concentrating hormone (MCH1) [6]: − (“−” indicates less than 50% inhibition at 10 μM)
- A7: inhibition of radioligand binding, human μ-opioid (MOP) [7]: − (“−” indicates less than 50% inhibition at 10 μM)
- A8: inhibition of radioligand binding, human neurokinin (NK1) [8]: + (“+” indicates greater than 50% inhibition at 10 μM)
- A9: inhibition of radioligand binding, human neuropeptide Y (NPY-Y1) [9]: − (“−” indicates less than 50% inhibition at 10 μM)
- A10: inhibition of radioligand binding, human opioid (ORL1) [10]: − (“−” indicates less than 50% inhibition at 10 μM)
- A11: inhibition of radioligand binding, mouse urotensin (mUR2) [11]: − (“−” indicates less than 50% inhibition at 10 μM)

Structure (SMILES): NCCC(=O)NC1C(OCc2ccc(Cl)cc2)OC(COCc2ccc(Cl)cc2)C(O)C1OCc1ccc2ccccc2c1 (single isomer, unassigned) [compound 481]
- A1: inhibition of radioligand binding, human δ-opioid (DOP) [1]: − (“−” indicates less than 50% inhibition at 10 μM)
- A2: inhibition of radioligand binding, human κ-opioid (KOP) ([2]; 10 µM): + (“+” indicates greater than 50% inhibition at 10 μM)
- A3: inhibition of radioligand binding, human melanocortin (MC3) [3]: + (“+” indicates greater than 50% inhibition at 10 μM)
- A4: inhibition of radioligand binding, human melanocortin (MC4) [4]: + (“+” indicates greater than 50% inhibition at 10 μM)
- A5: inhibition of radioligand binding, human melanocortin (MC5) [5]: + (“+” indicates greater than 50% inhibition at 10 μM)
- A6: inhibition of radioligand binding, human melanin-concentrating hormone (MCH1) [6]: + (“+” indicates greater than 50% inhibition at 10 μM)
- A7: inhibition of radioligand binding, human μ-opioid (MOP) [7]: − (“−” indicates less than 50% inhibition at 10 μM)
- A8: inhibition of radioligand binding, human neurokinin (NK1) [8]: + (“+” indicates greater than 50% inhibition at 10 μM)
- A9: inhibition of radioligand binding, human neuropeptide Y (NPY-Y1) [9]: − (“−” indicates less than 50% inhibition at 10 μM)
- A10: inhibition of radioligand binding, human opioid (ORL1) [10]: + (“+” indicates greater than 50% inhibition at 10 μM)
- A11: inhibition of radioligand binding, mouse urotensin (mUR2) [11]: − (“−” indicates less than 50% inhibition at 10 μM)
